Three compounds from patent US20120121591A1 (priority 2009, published 2012) can be followed below.

By IC50 is commonly meant the point on the concentration scale where inhibition reaches its midpoint.

What all share (format): cell-based
In experiment [1] the test system is IL-2 secretion from T cells in human whole blood. The note with it: read-out: WB (IL-2) IC50 (nM, Avg).
The test system of experiment [2] is IFN-g secretion from T cells in human whole blood. Conditions: read-out: WB (IFNg) IC50 (nM, Avg).
The target of experiment [3] is hKv1.3 (Homo sapiens, UniProt P22001). Kind of experiment: cell-based. The note with it: Kv1.3 (IWQ) IC50 (nM, Avg).
hKv1.3, sequence (P22001 whole entry): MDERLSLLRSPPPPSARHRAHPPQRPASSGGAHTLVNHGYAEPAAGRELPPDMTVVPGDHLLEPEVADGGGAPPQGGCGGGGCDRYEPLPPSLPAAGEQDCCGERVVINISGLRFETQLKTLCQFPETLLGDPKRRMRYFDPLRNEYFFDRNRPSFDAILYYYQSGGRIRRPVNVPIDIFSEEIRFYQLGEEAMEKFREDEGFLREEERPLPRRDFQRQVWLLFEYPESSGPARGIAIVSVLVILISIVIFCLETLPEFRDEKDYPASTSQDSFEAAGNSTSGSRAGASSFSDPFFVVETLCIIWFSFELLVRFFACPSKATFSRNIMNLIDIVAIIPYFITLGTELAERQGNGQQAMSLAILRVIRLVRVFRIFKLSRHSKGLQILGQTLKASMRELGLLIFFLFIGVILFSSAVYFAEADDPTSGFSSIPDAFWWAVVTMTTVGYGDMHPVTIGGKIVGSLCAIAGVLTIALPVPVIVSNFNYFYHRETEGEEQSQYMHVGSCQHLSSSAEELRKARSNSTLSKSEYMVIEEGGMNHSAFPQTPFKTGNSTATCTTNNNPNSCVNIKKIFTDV

Each structure is given as a SMILES string.

Consider `CC[C@H](C)[C@@H]1NC(=O)[C@@H](NC(=O)[C@H](CO)NC(=O)[C@@H](N)CCCNC(=N)N)CSSC[C@@H](C(=O)O)NC(=O)[C@H]([C@@H](C)O)NC(=O)CNC(=O)[C@@H]2CSSC[C@@H]3NC(=O)[C@H](CCC(N)=O)NC(=O)[C@H](Cc4ccccc4)NC(=O)[C@H](C)NC(=O)[C@H]([C@@H](C)O)NC(=O)[C@H](CSSC[C@H](NC(=O)[C@H](Cc4ccccc4)NC(=O)[C@H](CO)NC(=O)[C@H](CC(C)C)NC(=O)[C@H](CCCNC(=N)N)NC(=O)[C@H](Cc4ccc(O)cc4)NC(=O)[C@H](CCCCN)NC(=O)[C@H](CCSC)NC(=O)[C@H](CO)NC(=O)[C@H](Cc4c[nH]cn4)NC(=O)[C@H](CCCCN)NC3=O)C(=O)N[C@@H](CCCNC(=N)N)C(=O)N[C@@H](CCCCN)C(=O)N[C@@H]([C@@H](C)O)C(=O)N2)NC(=O)[C@H](CCCNC(=N)N)NC(=O)[C@H](CO)NC(=O)[C@H](CCCCN)NC(=O)[C@@H]2CCCN2C(=O)[C@H](C)NC(=O)[C@H]([C@@H](C)O)NC(=O)[C@H](CC(=O)O)NC1=O` [[Ala7]ShK], for which the 50% inhibitory concentration (IC50) in experiment [1] amounted to 0.886 nM; in experiment [2], 2.22 nM; in experiment [3] it was 0.188 nM.
For `CC[C@H](C)[C@@H]1NC(=O)[C@@H](NC(=O)[C@H](CO)NC(=O)[C@@H](N)CCCNC(=N)N)CSSC[C@@H](C(=O)O)NC(=O)[C@H]([C@@H](C)O)NC(=O)CNC(=O)[C@@H]2CSSC[C@@H]3NC(=O)[C@H](CCC(N)=O)NC(=O)[C@H](Cc4ccccc4)NC(=O)[C@H](C)NC(=O)[C@H]([C@@H](C)O)NC(=O)[C@H](CSSC[C@H](NC(=O)[C@H](Cc4ccccc4)NC(=O)[C@H](CO)NC(=O)[C@H](CC(C)C)NC(=O)[C@H](CCCNC(=N)N)NC(=O)[C@H](Cc4ccc(O)cc4)NC(=O)[C@H](CCCCN)NC(=O)[C@H](CCSC)NC(=O)[C@H](CO)NC(=O)[C@H](Cc4c[nH]cn4)NC(=O)[C@H](CCCCN)NC3=O)C(=O)N[C@@H](CCCNC(=N)N)C(=O)N[C@@H](CCCCN)C(=O)N[C@@H]([C@@H](C)O)C(=O)N2)NC(=O)[C@H](CCCNC(=N)N)NC(=O)[C@H](CO)NC(=O)[C@H](CCCCN)NC(=O)[C@H](C)NC(=O)[C@H]([C@@H](C)CC)NC(=O)[C@H]([C@@H](C)O)NC(=O)[C@H](CC(=O)O)NC1=O` [[Ala8]ShK] the same measures were 0.039 nM, 0.061 nM and 0.078 nM.
Take `CC[C@H](C)[C@@H]1NC(=O)[C@@H](NC(=O)[C@H](CO)NC(=O)[C@@H](N)CCCNC(=N)N)CSSC[C@@H](C(=O)O)NC(=O)[C@H]([C@@H](C)O)NC(=O)CNC(=O)[C@@H]2CSSC[C@@H]3NC(=O)[C@H](CCC(N)=O)NC(=O)[C@H](Cc4ccccc4)NC(=O)[C@H](C)NC(=O)[C@H]([C@@H](C)O)NC(=O)[C@H](CSSC[C@H](NC(=O)[C@H](Cc4ccccc4)NC(=O)[C@H](CO)NC(=O)[C@H](CC(C)C)NC(=O)[C@H](CCCNC(=N)N)NC(=O)[C@H](Cc4ccc(O)cc4)NC(=O)[C@H](CCCCN)NC(=O)[C@H](CCSC)NC(=O)[C@H](CO)NC(=O)[C@H](Cc4c[nH]cn4)NC(=O)[C@H](CCCCN)NC3=O)C(=O)N[C@@H](CCCNC(=N)N)C(=O)N[C@@H](CCCCN)C(=O)N[C@@H]([C@@H](C)O)C(=O)N2)NC(=O)[C@H](CCCNC(=N)N)NC(=O)[C@H](CO)NC(=O)[C@H](C)NC(=O)[C@@H]2CCCN2C(=O)[C@H]([C@@H](C)CC)NC(=O)[C@H]([C@@H](C)O)NC(=O)[C@H](CC(=O)O)NC1=O` [[Ala9]ShK]: the half-inhibitory concentration (IC50) in experiment [1] came out at 0.053 nM; in experiment [2], 0.103 nM; in experiment [3], 0.116 nM.
